For assay [1], the target named is T1, Ubiquitin carboxyl-terminal hydrolase 7 (Homo sapiens, UniProt Q93009). Nature of the assay: Inhibition of USP7 (unknown origin) using ubiquitin-EKL as substrate.
Target sequence in this assay (Q93009 whole entry): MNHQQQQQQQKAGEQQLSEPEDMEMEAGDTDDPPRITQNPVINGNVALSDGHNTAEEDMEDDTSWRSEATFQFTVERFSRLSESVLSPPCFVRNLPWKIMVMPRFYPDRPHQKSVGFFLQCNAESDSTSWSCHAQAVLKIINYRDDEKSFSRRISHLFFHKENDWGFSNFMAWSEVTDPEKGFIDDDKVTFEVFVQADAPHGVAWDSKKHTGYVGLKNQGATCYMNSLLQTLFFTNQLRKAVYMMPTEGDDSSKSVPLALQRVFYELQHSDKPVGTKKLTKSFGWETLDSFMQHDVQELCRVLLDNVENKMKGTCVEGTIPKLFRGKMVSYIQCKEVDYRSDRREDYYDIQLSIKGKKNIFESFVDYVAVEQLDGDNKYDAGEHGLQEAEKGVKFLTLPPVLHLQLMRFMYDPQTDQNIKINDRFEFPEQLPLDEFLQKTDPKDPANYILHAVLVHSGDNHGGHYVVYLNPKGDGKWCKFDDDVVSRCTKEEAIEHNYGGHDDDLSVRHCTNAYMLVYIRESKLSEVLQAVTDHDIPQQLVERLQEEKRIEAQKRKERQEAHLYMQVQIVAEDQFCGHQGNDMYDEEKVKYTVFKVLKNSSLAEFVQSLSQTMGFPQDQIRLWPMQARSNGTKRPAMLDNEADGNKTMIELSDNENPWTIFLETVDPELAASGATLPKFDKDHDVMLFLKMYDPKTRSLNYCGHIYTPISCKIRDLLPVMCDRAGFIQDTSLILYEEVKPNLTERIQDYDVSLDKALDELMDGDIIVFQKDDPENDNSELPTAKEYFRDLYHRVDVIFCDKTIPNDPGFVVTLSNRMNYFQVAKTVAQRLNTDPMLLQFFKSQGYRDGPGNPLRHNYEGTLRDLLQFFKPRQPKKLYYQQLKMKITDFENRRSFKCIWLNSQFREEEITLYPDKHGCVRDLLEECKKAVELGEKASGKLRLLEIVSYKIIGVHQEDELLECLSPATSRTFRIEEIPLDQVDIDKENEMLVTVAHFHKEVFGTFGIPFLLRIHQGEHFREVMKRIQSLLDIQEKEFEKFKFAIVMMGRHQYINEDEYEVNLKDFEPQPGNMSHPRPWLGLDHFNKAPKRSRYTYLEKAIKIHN
Assay [2] has as its target T1, Ubiquitin carboxyl-terminal hydrolase 7. Briefly: Inhibition of USP7 (unknown origin) using ubiquitin-EKL as substrate at 20 uM.
Target sequence in this assay (Q93009 whole entry, looked up): as the sequence (Q93009 whole entry) above
For assay [3], the target named is T2, Sentrin-specific protease 1 (Homo sapiens, UniProt Q9P0U3).
T2 sequence (Q9P0U3 whole entry): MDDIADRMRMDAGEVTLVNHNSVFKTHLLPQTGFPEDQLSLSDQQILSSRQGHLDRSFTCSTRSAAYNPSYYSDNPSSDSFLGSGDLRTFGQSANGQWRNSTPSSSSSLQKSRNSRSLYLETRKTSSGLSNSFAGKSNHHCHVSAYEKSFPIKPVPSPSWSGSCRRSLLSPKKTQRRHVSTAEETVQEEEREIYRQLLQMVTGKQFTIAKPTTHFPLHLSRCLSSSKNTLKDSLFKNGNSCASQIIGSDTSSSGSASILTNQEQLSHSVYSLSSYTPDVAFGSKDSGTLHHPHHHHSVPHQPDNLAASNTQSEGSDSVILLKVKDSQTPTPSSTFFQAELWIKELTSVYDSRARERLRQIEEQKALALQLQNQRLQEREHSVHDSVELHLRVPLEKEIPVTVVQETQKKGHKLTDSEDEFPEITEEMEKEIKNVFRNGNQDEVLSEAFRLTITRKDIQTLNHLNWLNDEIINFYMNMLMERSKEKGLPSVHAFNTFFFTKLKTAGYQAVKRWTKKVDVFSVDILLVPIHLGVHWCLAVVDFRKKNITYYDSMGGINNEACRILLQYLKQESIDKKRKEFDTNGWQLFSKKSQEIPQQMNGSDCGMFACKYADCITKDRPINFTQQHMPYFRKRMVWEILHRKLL
Nature of the assay: Inhibition of core catalytic domain of SENP1 (unknown origin) using SUMO3-EKL as substrate.

The target in assay [4] is T3, Ubiquitin carboxyl-terminal hydrolase 21 (Homo sapiens, UniProt Q9UK80).
T3 sequence (Q9UK80 whole entry): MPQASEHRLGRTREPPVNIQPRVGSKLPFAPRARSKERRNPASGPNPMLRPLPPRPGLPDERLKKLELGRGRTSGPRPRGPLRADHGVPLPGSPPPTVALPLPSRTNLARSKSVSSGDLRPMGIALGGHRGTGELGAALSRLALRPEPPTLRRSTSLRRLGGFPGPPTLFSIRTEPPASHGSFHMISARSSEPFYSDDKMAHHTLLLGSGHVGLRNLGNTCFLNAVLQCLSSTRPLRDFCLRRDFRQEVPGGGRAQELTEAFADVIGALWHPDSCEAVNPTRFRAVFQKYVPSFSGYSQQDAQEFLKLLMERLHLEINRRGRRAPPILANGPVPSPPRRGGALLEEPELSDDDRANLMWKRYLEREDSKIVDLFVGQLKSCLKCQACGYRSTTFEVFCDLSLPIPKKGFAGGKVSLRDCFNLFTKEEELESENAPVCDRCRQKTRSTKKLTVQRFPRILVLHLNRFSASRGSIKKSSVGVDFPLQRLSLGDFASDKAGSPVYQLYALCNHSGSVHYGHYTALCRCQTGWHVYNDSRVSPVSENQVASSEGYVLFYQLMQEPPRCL
Briefly: Inhibition of core catalytic domain of USP21 (unknown origin) using ubiquitin-Rh110 as substrate.

Assay [5] concerns the target T4, Ubiquitin carboxyl-terminal hydrolase 8 (Homo sapiens, UniProt P40818).
T4 sequence (P40818 whole entry): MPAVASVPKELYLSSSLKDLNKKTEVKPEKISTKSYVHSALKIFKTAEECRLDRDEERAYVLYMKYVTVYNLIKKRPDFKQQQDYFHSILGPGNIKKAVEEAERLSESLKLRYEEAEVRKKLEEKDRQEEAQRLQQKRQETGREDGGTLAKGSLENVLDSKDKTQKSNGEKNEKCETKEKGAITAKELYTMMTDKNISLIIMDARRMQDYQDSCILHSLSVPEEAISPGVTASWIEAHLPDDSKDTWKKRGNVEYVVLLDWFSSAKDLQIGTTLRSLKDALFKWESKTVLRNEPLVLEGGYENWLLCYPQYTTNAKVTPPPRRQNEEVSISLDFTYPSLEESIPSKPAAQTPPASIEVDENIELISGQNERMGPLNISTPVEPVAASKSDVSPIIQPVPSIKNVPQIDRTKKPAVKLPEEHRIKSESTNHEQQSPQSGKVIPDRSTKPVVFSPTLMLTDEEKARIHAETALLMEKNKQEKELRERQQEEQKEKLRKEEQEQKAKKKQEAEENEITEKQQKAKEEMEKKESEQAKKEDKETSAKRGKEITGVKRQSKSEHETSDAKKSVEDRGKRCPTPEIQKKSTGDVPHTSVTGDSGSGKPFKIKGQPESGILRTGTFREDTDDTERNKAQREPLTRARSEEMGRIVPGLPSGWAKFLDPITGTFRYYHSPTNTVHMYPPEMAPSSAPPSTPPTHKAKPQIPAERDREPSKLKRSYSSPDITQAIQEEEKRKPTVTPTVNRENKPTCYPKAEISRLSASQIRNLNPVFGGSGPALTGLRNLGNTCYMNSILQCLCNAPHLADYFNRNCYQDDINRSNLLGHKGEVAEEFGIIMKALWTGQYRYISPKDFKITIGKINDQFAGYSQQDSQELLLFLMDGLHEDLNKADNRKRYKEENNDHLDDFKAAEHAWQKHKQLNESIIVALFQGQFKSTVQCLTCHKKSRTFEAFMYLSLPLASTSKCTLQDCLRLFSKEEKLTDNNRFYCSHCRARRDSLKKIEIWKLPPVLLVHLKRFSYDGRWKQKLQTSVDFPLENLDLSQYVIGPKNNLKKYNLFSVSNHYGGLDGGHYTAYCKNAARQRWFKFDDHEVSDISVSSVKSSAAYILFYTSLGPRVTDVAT
Nature of the assay: Inhibition of core catalytic domain of USP8 (unknown origin) using ubiquitin-Rh110 as substrate.

In assay [6] the target is T5, Ubiquitin carboxyl-terminal hydrolase 2 (Homo sapiens, UniProt O75604).
T5 sequence (O75604 whole entry): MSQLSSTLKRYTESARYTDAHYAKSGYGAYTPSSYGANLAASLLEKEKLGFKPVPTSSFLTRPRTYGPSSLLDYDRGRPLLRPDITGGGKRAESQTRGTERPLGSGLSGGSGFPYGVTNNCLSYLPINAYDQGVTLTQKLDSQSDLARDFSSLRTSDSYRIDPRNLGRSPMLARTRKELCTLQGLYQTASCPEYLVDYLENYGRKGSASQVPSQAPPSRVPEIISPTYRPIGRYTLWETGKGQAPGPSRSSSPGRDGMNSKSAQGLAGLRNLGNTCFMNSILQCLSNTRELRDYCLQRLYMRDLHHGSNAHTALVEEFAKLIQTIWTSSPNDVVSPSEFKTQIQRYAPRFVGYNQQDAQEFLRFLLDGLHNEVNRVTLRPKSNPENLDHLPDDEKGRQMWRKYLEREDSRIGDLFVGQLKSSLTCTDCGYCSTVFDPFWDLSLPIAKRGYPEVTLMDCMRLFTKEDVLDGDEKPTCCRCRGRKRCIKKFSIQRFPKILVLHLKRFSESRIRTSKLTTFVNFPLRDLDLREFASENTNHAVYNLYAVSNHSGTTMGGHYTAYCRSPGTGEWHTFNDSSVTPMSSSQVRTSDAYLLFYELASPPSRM
Briefly: Inhibition of core catalytic domain of USP2 (unknown origin) using diubiquitin IQF K4804 as substrate.

In the next assay the test system is HCT-116. Nature of the assay: Antiproliferative activity against p53 wild type human HCT116 cells expressing USP7 assessed as growth inhibition up to 50 uM. It is filed as functional, cell-based.

For orientation: IC50 means the concentration that inhibits the measured activity by half. By inhibition is commonly meant the change of the read-out against control, counted positive when it falls. Higher therefore signals a response far below the control.

The source made the active and inactive calls. The rule behind the calls is not given here. Where only a bound is given, the exact number is not on record here.

As to `CCN(CCCNC(=O)c1ccc2nc3c(c(Cl)c2c1)CCCC3)Cc1ccccc1`, in assay [1], the 50% inhibitory concentration (IC50) came to 22.6 µM.

`NC1=NC(=O)/C(=C2\CCNC(=O)c3[nH]c(Br)cc32)N1` registered an inhibition in assay [2] of 20%.

Compound `NC1=N/C(=C2/CCNC(=O)c3[nH]ccc32)C(=O)N1` showed an inhibition in assay [2] of 20%.

For `N#Cc1nc2c(nc1C#N)-c1ccc(Cl)cc1C2=O`, in assay [1], the IC50 turned out to be 0.42 µM.

For `CN(CCCNC(=O)c1ccc2nc3c(c(Cl)c2c1)CCCC3)Cc1ccccc1`, the IC50 in assay [1] came out at 28.1 µM. This IC50 lies about 67-fold higher than the previous one.

Consider `O=C1NC(=O)/C(=C2\CCNC(=O)c3[nH]ccc32)N1` [SPONGIACIDIN C], for which the IC50 in assay [3] is over 31.6 µM; in assay [4] it was 16.6 µM; in assay [5], over 31.6 µM; in assay [6] it was over 31.6 µM; in assay [1], 3.8 µM. For the same compound, the “growth inhibition (GI)” value with HCT-116 is “inactive”.

Values taken from ChEMBL document CHEMBL2396580, “Spongiacidin C, a pyrrole alkaloid from the marine sponge Stylissa massa, functions as a USP7 inhibitor” (Bioorg Med Chem Lett, 2013).
